Test system: HSPC-pDCs
Experiment: Phenotypic analysis of pDC surface markers by flow cytometry
Assay type: cell-based, human
Details: pDCs isolated from AA-supplemented culture at day 16
Description: Flow cytometry was used to immunophenotype pDCs. Briefly, cells were spun down and resuspended in 100 μL PBS. Cells were stained with Ghost Dye Red 780 Viability Dye (13-0865, Tonbo) for 30 min before being washed with FACS buffer (PBS with 2% FCS and 1 mM EDTA). Cells were subsequently resuspended in 50 μL FACS buffer and stained with the following antibodies: FITC anti-human Lineage Cocktail (CD3 (UCHT1), CD14 (HCD14), CD16 (3G8), CD19 (HIB19), CD20 (2H7) and CD56 (HCD56), 348801, BioLegend), APC anti-human CD11c (3.9, 20-0116-T100, TonboBio), PE anti-human CD123 (6H6, 12-1239-42, eBioscience), PE-Cy7 anti-human CD303 (201a, 25-9818-42, eBioscience). Cells were stained for 30 min before being washed three times in FACS buffer. To validate the expression CD34+ on HSPCs, cells were stained with PE-Cy7 anti-human CD34 (581, 343516, BioLegend) for 30 min, washed three times in FACS buffer before being resuspended in FACS buffer. PI was added to the cells as a viability dye in a concentration of 1:100 (13-6990 Tonbo Bioscience). Fluorescence intensities were measured using the Quanteon flow cytometer equipped with 4 lasers (405 nm, 488 nm, 561 nm, and 637 nm) and 29 photomultipliers (PMT) detectors or the NovoCyte flow cytometer with two lasers (488 nm and 561 nm) and 12 PMT detectors (ACEA Biosciences, Inc.). Data analysis was done using FlowJo (Version 10, Tree Star, Ashland, OR, USA). […]

## O=C1O[C@H]([C@@H](O)CO)C(O)=C1O [ascorbic acid]
  surface expression levels of CD303: lower expression levels

From patent publication US20240141294A1, “CGMP COMPLIANT PRODUCTION AND EXPANSION OF PLASMACYTOID DENDRITIC CELLS FROM HEMATOPOIETIC STEM AND PROGENITOR CELLS” (AARHUS UNIVERSITET, priority 2021, published 2024)
